Reference: patent US11512053B2, “Arginine methyltransferase inhibitors and uses thereof” (priority 2013, dated 2022)

Target: full-length human PRMT8 isoform 1 (Homo sapiens, UniProt Q9NR22)
Test: PRMT8 Biochemical Assay (3H-SAM Flashplate, peptide substrate)
Settings: single experiment or average of multiple experiments; read-out: Biochemical IC50 PRMT8
How it was run: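 Scintillation Flashplate capture of biotinylated histone H4 (31-45) peptide (150 nM) methylated by 1.5 nM PRMT8 using 3H-SAM (50 nM) with unlabelled SAM (550 nM); enzyme and compound preincubated 30 min, room temperature, in Bicine pH 7.6 buffer with TCEP, BSG, Tween 20 and 2% DMSO. Stopped with excess cold SAM (400 uM); IC50 from % inhibition, min control 1 mM SAH.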

full-length human PRMT8 isoform 1, sequence (Q9NR22 whole entry, canonical isoform): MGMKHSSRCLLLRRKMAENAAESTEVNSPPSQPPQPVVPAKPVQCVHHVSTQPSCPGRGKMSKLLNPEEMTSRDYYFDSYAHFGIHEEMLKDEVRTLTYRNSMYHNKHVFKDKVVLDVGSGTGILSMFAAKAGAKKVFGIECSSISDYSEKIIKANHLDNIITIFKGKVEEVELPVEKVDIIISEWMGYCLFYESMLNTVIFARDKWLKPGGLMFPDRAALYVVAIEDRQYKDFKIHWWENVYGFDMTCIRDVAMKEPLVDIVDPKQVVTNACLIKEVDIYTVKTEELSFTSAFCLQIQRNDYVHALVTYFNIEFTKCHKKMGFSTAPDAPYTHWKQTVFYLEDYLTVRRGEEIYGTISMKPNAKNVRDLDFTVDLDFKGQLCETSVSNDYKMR

CNCCN(C)Cc1c[nH]nc1C#Cc1ccccc1 [Compound 3]
IC50: 950 nM
